# US20240174716A1, “TRANSPORTER PEPTIDES AND APPLICATION THEREOF” (Vacino Biotech Co. Ltd, priority 2022, published 2024)
# “And” between values parts separate entries of the source, which are not always exact repeats. Identical values can stand only once. Like-named read-outs stand apart in the source and are kept apart here. Peptide text beside a SMILES is read from it.
# Tests used:
# [1] = In vivo imaging system (IVIS) analysis of fluorescent dye-conjugated transporter peptides; design: species or system BALB/c mice; conditions: for quantified fluorescence signal in mouse brain: after 0.5 hour of the injection; for half-life: BALB/c, mouse, brain, intravenous, read-out: half-life of the fluorescence in the mouse brains (converted)
# Protocol: In this Example, the transporter peptide disclosed herein was administered to mice, and the distribution of the transporter peptide in the mice was detected with an in vivo fluorescence imaging system (IVIS).
# One (1) mg of each transporter peptides PT-001 (SEQ ID NO: 2), PT-025 (SEQ ID NO: 11), PT-034 (SEQ ID NO: 19), and PT-031 (SEQ ID NO: 17) was dissolved in 1 mL of buffer containing 50 mM sodium bicarbonate/bicarbonate to a final concentration of 1 mg/mL. […] of 10 mg/mL fluorescent dye (VivoTag 680 XL, PerkinElmer, USA) was added to the 1 mL transporter peptide solution, and the mixture was incubated at room temperature in the dark for 1 hour. The dye-labeled product was filtered with a 3 KDa centrifugal filter device (Amicon Ultra-0.5 Centrifugal filter devices, Millipore, USA) and centrifuged at 14,000×g for 15 minutes. The fluorescent dye-conjugated transporter peptide was diluted with 1×PBS to a final volume of 0.2 mL.
# BALB/c mice (BioLASCO Taiwan Co., Ltd, Taipei, Taiwan) at the age of 7-8 weeks were divided into a control group (n=1) and a test group (n=3). The mouse in the control group was administered 50 μL of fluorescent dye via tail vein injection. Mice in the group were administered 50 μL of the transporter peptide conjugated with fluorescent dye obtained above via tail vein injection. Mice were photographed using an optical imaging system (U-OI, MlLabs, Netherlands) at 0.5, 1, 2, 4, 6 and 24 hours after the injection for IVIS imaging analysis, with the excitation wavelength of 631 nm, the emission wavelength of 710 nm, and 10-second exposure time. Fluorescence signals of mouse brains were further quantified.
# [2] = 10 mg/kg tail vein injection
# Protocol: Brain tissue was collected one hour after the injection and triturated in 1.3 mL of 50 mM sodium bicarbonate/bicarbonate buffer. The brain tissue grinding fluid was centrifuged at 3000 rpm for 5 minutes, the supernatant was taken and further centrifuged at 14000 rpm for 15 minutes. Zero-point-four (0.4) mL of ice-cold methanol was added to 0.1 mL of the brain tissue grinding supernatant. The mixture was shook for 10 minutes, and then centrifuge at 14,000 rpm for 15 minutes. The brain tissue supernatant was then subjected to HPLC analysis whose method is as described in Example 2. The HPLC peak area was calculated at the retention time of 16.9 minutes, and a standard curve was plotted to calculate the content of the transporter peptide in each sample.
# [3] = system: Caco-2 cell monolayer; conditions: PT-034 on top of monolayer, 37° C.
# Protocol: In this example, the transport efficiency of the transporter peptide disclosed herein to the Caco-2 cell monolayer was tested to analyze the penetration effect of the transporter peptide on the tissue barrier, and to analyze the ability of the transporter peptide to induce transcytosis of the cell.
# Caco-2 cells were plated at 2×10^4 cells/cm^2 on 24-transwell inserts (BD Falcon, 353495) in DMEM medium with 10% FBS and cultured for 21 days to form a monolayer. Monolayers were then confirmed by transepithelial electrical resistance (TEER), and the monolayers which have at least 500-600 Ω cm^2 of TEER were qualified monolayers for the following transcytosis experiment.
# HPLC was conducted by using a Water ACQUITY Arc system. The chromatographic separation was performed on a C18 column (Waters XSelect HSS T3 […], 4.6 mm×250 mm). Column temperature was maintained and operated at 40° C. The mobile phase consisted of A-0.1% trifluoroacetic acid in water and B-100% methanol. Separation was performed according to the following gradient program: 0 min-10% B, 6 min-30% B, 12 min-50% B, 18 min-90% B, 23 min-10% B. The flow rate of the mobile phase was at 1 mL/min, the injection volume of the sample was 20 μL, and the total run time was within 30 mins.
# The caco-2 monolayers with TEER at 680 Ω cm^2 were equilibrated in DMEM medium (serum free). […] of PT-034 (SEQ ID NO: 19) was applied to the top of Caco-2 monolayers at 37° C. Samples of both upper and lower solution were collected at 0, 0.25, 0.5, 1, 2, 6 hours. Peptides were purified from the sample solution by solid phase extraction (SPE) using C-18 tips (Cat. no. 87784, Pierce, Waltham, Massachusetts, USA). Each sample was supplemented with a final concentration of 11.43 μM PT-034 as internal control. 300 μL sample was absorbed by the C18 tip and eluted by 100 μL methanol. The sample was then subjected to HPLC analysis. The HPLC peak area was calculated at retention time of 16.9 minutes, and a standard curve was plotted for calculating the contents of the transporter peptide in the sample solutions.
# [4] = 1 mg/kg dye-conjugated peptide, tail vein injection, 0.5, 1, 2, 4 and 6 hours after injection
SMILES,"distribution of fluorescent signal in mice (IVIS) [1, 4]","quantified fluorescence signal in mouse brain ([1]; 1 mg/kg, tail vein injection)","half-life ([1]; 1 mg/kg, tail vein injection)","Content of the transporter peptid in the brain tissue ([2]; brain collected one hour after injection, individual mouse)","Injection dose/brain tissue weight ([2]; one hour after injection, individual mouse)","average transport efficiency to the brain ([2]; one hour after injection, mean of 2 mice)","distribution of fluorescent signal in mice (IVIS) ([1]; 10 mg/kg dye-conjugated peptide, tail vein injection, 1, 2, 4 and 6 hours after injection)","quantified fluorescence signal in mouse brain compared with control group (Dye) ([1]; 10 mg/kg, tail vein injection, after 1 hour of the injection)","half-life ([1]; 10 mg/kg, tail vein injection)",transporter peptide penetrated the Caco-2 cell monolayer ([3]; 0.25 hours),transporter peptide penetrated the Caco-2 cell monolayer ([3]; 1 hour),transporter peptide penetrated the Caco-2 cell monolayer ([3]; 2 hours),transporter peptide penetrated the Caco-2 cell monolayer ([3]; 6 hours)
"CC[C@H](C)[C@H](NC(=O)[C@@H](N)CC(=O)O)C(=O)N[C@@H](CO)C(=O)N[C@H](C(=O)N[C@@H](CC(C)C)C(=O)N[C@@H](CCSC)C(=O)N[C@@H](CCCCN)C(=O)N[C@@H](CCC(=O)O)C(=O)N[C@@H](Cc1ccc(O)cc1)C(=O)N[C@@H](CC(N)=O)C(=O)O)C(C)C [PT-031, DISVLMKEYN] (H-DISVLMKEYN-OH)",enriched in the brain and spine,high levels of fluorescent signals,~5 h,–,–,–,–,–,–,–,–,–,–
"CC[C@H](C)[C@H](NC(=O)[C@@H](N)CC(=O)O)C(=O)N[C@@H](CO)C(=O)N[C@H](C(=O)N[C@@H](CC(C)C)C(=O)N[C@@H](CCSC)C(=O)N[C@@H](CCCCN)C(=O)N[C@@H](CCC(=O)O)C(=O)N[C@@H](Cc1ccc(O)cc1)C(=O)N[C@@H](CC(=O)O)C(=O)O)C(C)C [PT-001, DISVLMKEYD] (H-DISVLMKEYD-OH)",enriched in the brain and spine,high levels of fluorescent signals,~5 h,–,–,–,–,–,–,–,–,–,–
"CC[C@H](C)[C@H](NC(=O)[C@@H](N)CC(=O)O)C(=O)N[C@@H](CO)C(=O)N[C@H](C(=O)N[C@@H](CC(C)C)C(=O)N[C@@H](CC(=O)O)C(=O)N[C@@H](CCCCN)C(=O)N[C@@H](CCC(=O)O)C(=O)N[C@@H](Cc1ccc(O)cc1)C(=O)N[C@@H](CC(=O)O)C(=O)O)C(C)C [PT-025, DISVLDKEYD] (H-DISVLDKEYD-OH; N-terminus and C-terminus assumed)",enriched in the brain and spine,high levels of fluorescent signals,~5 h,–,–,–,–,–,–,–,–,–,–
"CC[C@H](C)[C@H](NC(=O)[C@@H](N)CC(=O)O)C(=O)N[C@@H](CO)C(=O)N[C@H](C(=O)N[C@@H](CC(C)C)C(=O)N[C@@H](CCSC)C(=O)N[C@@H](CCCCN)C(=O)N[C@@H](CCC(=O)O)C(=O)N[C@@H](Cc1ccc(O)cc1)C(=O)N[C@@H](CCC(N)=O)C(=O)O)C(C)C [PT-034, DISVLMKEYQ]",–,–,–,25.9 µg and 25.5 µg,23.48% ID/g of brain and 22.09% ID/g of brain,22.79 % ID/g of brain,enriched in the brain and spine,high level of fluorescent signal,~5 h,about 8%,~40%,~42%,~56%
